Tests used:
chickweed = test: Test C postemergence; format: in vivo, Stellaria media
How it was run: (§1)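 Visual ratings on a 0–100 scale (100 = complete control) were made versus untreated controls after 13–15 greenhouse days. Chemicals in a surfactant-containing non-phytotoxic solvent were applied either preemergence to seeds in loam–sand soil or postemergence to 1- to 4-leaf plants 2–18 cm tall.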

wild oat = test: Test C postemergence; format: in vivo, Avena fatua
How it was run: as §1

velvetleaf = test: Test C postemergence; format: in vivo, Abutilon theophrasti
How it was run: as §1

pigweed [1] = test: Test A postemergence; format: in vivo, Amaranthus retroflexus
How it was run: (§2)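 Visual 0–100 rating (100 = complete control) taken about 10 d post-treatment relative to untreated checks. Preemergence: directed soil spray on sown loam/sand pots. Postemergence: seedlings 2–10 cm, 1–2 leaf. Non-phytotoxic solvent formulation with surfactant.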

soybean = test: Test C postemergence; format: in vivo, Glycine max
How it was run: as §1

giant foxtail [2] = test: Test C postemergence; format: in vivo, Setaria faberii
How it was run: as §1

giant foxtail [3] = test: Test A postemergence; format: in vivo, Setaria faberii
How it was run: as §2

pigweed [4] = test: Test A preemergence; format: in vivo, Amaranthus retroflexus
How it was run: as §2

ragweed = test: Test C postemergence; format: in vivo, Ambrosia elatior
How it was run: as §1

wheat, winter = test: Test C postemergence; format: in vivo, Triticum aestivum
How it was run: as §1

giant foxtail [5] = test: Test A preemergence; format: in vivo, Setaria faberii
How it was run: as §2

[6] = 16 g ai/ha, postemergence, 0 is no effect, 100 is complete control
[7] = 31 g ai/ha, postemergence, visual rating, scale 0 to 100 (0 no effect, 100 complete control), 13 to 15 days
[8] = 125 g ai/ha, postemergence, visual rating, scale 0 to 100 (0 no effect, 100 complete control)
[9] = Postemergence, 62 g ai/ha, scale 0 to 100 (0 no effect, 100 complete control), 13 to 15 days
[10] = 125 g ai/ha, 0 to 100 scale, 0 no effect, 100 complete control
[11] = 500 g ai/ha, 0 to 100 scale where 0 is no effect and 100 is complete control

N#Cc1cn(-c2c(C#N)cccc2Oc2ncc(Cl)cn2)nn1 [Compound 273]
Plant response rating (0 to 100), Chickweed (chickweed; [6]): 10 | Chickweed plant response rating (chickweed; [7]): 30 | Plant response rating, Chickweed (chickweed; [8]): 70 | Plant response rating, Chickweed (chickweed; [9]): 35 | Plant response rating (0 to 100), Oat, Wild (wild oat; [6]): 5 | Oat, Wild plant response rating (wild oat; [7]): 5 | Plant response rating, Oat, Wild (wild oat; [8]): 10 | Plant response rating, Oat, Wild (wild oat; [9]): 5 | Plant response rating (0 to 100), Velvetleaf (velvetleaf; [6]): 5 | Velvetleaf plant response rating (velvetleaf; [7]): 10 | Plant response rating, Velvetleaf (velvetleaf; [8]): 30 | Plant response rating, Velvetleaf (velvetleaf; [9]): 25 | Plant response rating, Pigweed (pigweed [1]; [10]): 100 | Plant response rating, Pigweed (pigweed [1]; [11]): 100 | Plant response rating (0 to 100), Soybean (soybean; [6]): 60 | Soybean plant response rating (soybean; [7]): 70 | Plant response rating, Soybean (soybean; [8]): 90 | Plant response rating, Soybean (soybean; [9]): 90 | Plant response rating (0 to 100), Foxtail, Giant (giant foxtail [2]; [6]): 10 | Foxtail, Giant plant response rating (giant foxtail [2]; [7]): 40 | Plant response rating, Foxtail, Giant (giant foxtail [2]; [8]): 20 | Plant response rating, Foxtail, Giant (giant foxtail [2]; [9]): 10 | Plant response rating, Foxtail, Giant (giant foxtail [3]; [10]): 70 | Plant response rating, Foxtail, Giant (giant foxtail [3]; [11]): 90 | Pigweed plant response rating (0 to 100 scale) (pigweed [4]; 125 g ai/ha): 100 | Pigweed plant response rating (pigweed [4]; [11]): 100 | Plant response rating (0 to 100), Ragweed (ragweed; [6]): 30 | Ragweed plant response rating (ragweed; [7]): 55 | Plant response rating, Ragweed (ragweed; [8]): 80 | Plant response rating, Ragweed (ragweed; [9]): 55 | Plant response rating (0 to 100), Wheat (wheat, winter; [6]): 0 | Wheat plant response rating (wheat, winter; [7]): 0 | Plant response rating, Wheat (wheat, winter; [8]): 10 | Plant response rating, Wheat (wheat, winter; [9]): 0 | Foxtail, Giant plant response rating (0 to 100 scale) (giant foxtail [5]; 125 g ai/ha): 90 | Foxtail, Giant plant response rating (giant foxtail [5]; [11]): 90

Reference: US9695155B2, “Herbicidal substituted pyrimidinyloxy benzene compounds” (E. I. DU PONT DE NEMOURS AND COMPANY, priority 2013, dated 2017)
